This note sets out measurements from BindingDB's records for patent US20250084074 (Merck Patent, 2025).

As a reminder, the pIC50 is the IC50 on a negative log10 scale, so that one unit is a factor of ten. High values mean a small IC50, low ones a large IC50.

pIC50: −log10 of the molar value.

The target of this assay is T1, Kinesin-like protein KIFC1 (Homo sapiens, UniProt Q9BW19).
T1 sequence (Q9BW19 whole entry): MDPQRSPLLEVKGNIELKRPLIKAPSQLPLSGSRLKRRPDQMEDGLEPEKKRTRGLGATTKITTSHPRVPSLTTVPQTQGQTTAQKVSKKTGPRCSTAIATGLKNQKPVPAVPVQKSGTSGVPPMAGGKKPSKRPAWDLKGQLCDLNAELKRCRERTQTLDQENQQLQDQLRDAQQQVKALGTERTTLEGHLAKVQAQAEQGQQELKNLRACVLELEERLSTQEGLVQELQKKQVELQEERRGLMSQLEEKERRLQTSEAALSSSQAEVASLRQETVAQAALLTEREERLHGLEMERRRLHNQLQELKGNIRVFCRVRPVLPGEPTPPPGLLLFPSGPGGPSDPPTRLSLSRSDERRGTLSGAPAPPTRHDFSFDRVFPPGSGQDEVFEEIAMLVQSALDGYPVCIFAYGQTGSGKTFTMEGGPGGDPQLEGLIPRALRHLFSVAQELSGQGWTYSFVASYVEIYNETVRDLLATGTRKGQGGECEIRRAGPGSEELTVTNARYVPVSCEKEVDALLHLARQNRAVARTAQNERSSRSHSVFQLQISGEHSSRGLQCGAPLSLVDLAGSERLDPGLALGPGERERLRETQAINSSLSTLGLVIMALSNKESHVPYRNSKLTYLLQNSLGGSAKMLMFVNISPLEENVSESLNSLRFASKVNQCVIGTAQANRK
Put plainly: Inhibitory Activities Against HSET-HSET ADP-Glo Assay. As to the method:
Reagents: (+4° C. Storage)Paclitaxel Prod.No.TXD.01 2 mM in DMSO (from Universal Biologicals Cambridge).Tubulin Protein (Pre-formed Microtubules): Bovine Brain Prod.No.MT001-XL Lot.025 10 mg/mL (from Universal Biologicals Cambridge).Reagents: (−80° C. Storage)MT001-XL—Tubulin Protein (Pre-formed Microtubules): Bovine Brain—reconstituted in buffer—15 mM PIPES pH7, 1 mM MgCl2, 20 μM paclitaxel (aliquots at 10 mg/mL) from Universal Biologicals Cambridge.HSET full length protein—Current batch is FL HSET Prep1 (SEQ-000096_002-01_01)Buffer is 20 mM Hepes pH 7.5, 200 mM NaCl, 2 mM TCEP, 5% glycerol (5 μL aliquots at 10.2 μM)Reagents: (−20° C. Storage)ADP-Glo Kinase Assay kit (Promega Prod.No.V9102) 10,000 assay pointsADP-Glo reagent (50 mL), Kinase Detection Reagent (100 mL), and Ultrapure ATP (10 mM) aliquotedBuffer Stocks (filtered and stored at rt for up to 1 month)HEPES acid, 4-(2-Hydroxyethyl)piperazine-1-ethanesulfonic acid MW:238, 238.3 mg/mL=1 M7149 mg/30 mL=1M (pH to 6.8 with 5 M NaOH)PIPES, 1,4-Piperazinediethanesulfonic acid MW: 302.4, 30.24 mg/mL=100 mM; 907.2 mg/30 mL=100 mM (pH to 7 with 5 M NaOH, white cloudy suspension until the pH changes)EGTA, Ethylene glycol-bis(2-aminoethylether)-N,N,N′,N′-tetraacetic acid MW: 380.35, 38.035 mg/mL=100 mM1901.75 mg/50 mL=100 mM (pH to ˜7 with 5 M NaOH)—takes a long time to get into solution and for pH to stabilizeTriton-X-100, MW: 625, 62.5 mg/mL=100 mM (6.25% w/v) (viscous, pipette Triton X-100 with a Gilson using a trimmed pipette tip)ECHO ProtocolCreate an ECHO intermediate plate by adding 24.5 μL DMSO to columns 1 & 2, and 40 μL DMSO to columns 23 & 24 of an ECHO 384PP plateAdd 100 nL of compound/DMSO per well in 384-well Proxi-Plate Plus (white) —Perkin Elmer Cat #6008289 using ECHO dose response protocol 100 nL normal to Assay buffer (Keep on ice): HEPES pH 6.8, MgCl2, EGTA, Triton X-100, DTT, HPLC H2O Microtubule Working Solution (3.2):1 ml PM buffer: PIPES pH 7.0, MgCl2, HPLC H2O, Paclitaxel, mix well, store at rtThen add 26.4 μL of 10 mg/ml microtubules to 724 μL of the above PM buffer to make 750 μL of microtubule working solution @350 μg/mL microtubules (store at rt)Stock HSET enzyme solution (3.1)—keep on iceAdd 1.33 μL 10.2 μM HSET Prepi (SEQ-000096_002-01_01) to 1358 μL assay buffer to make a 10 nM stock for a 5 nM final assay concentration (1/1020 dilution).HSET/Microtubule working solution (3.3)Mix solutions 3.1 and 3.2 in the ratio of 2.5:1 (1214.3 μL 3.1+485.7 μL 3.2) keep at rt for 15 min3.2 is diluted 3.5-fold, 3.1 is diluted 1.4-fold BLANK solution is 357 μL 2XAB+143 μL microtubule working solution 3.2. (Same proportions as HSET/Microtubule working solution (3.3))ATP Working solution is 1 μL 10 mM UltraPure ATP (Promega kit)+999 μL ddH20 gives 10 μM ATP for a 3 μM final assay concentration, stored on ice.Assay procedure in PROXIPLATE 384 PLUS WHITE (Perkin Elmer) plates (Remove 2.4 mL ADP Glo and 4.5 mL Kinase detection reagent from freezer to warm up to rt)Add 3.5 μL BLANK solution to assay plate (column 12)Add 3.5 μL HSET/Microtubule solution (3.3) (columns 1-11 & 13-24)Centrifuge at 1000 rpm for 1 min(pre-incubate enzyme and compound for 10 min)Add 1.5 μL of 10 μM ATP to start reaction gives a final [HSET] of 5 nM, [ATP] of 3 μM and [microtubule] of 70 μg/mL, centrifuge at 1000 rpm for 1 min and incubated at rt for 80 min.After the 80-minute incubation, stop reaction by adding 5 μL ADP-Glo reagent to all wells. Centrifuge for 1 min at 1000 rpm, leave for 40 min at rt.In the dark/away from direct light, add 10 μL Kinase Detection Reagent (KDR) to all wells, Seal plate with a Topseal (Perkin Elmer Cat #6050185) and centrifuge as above, leave for 40 min at rt covered in foil.
For orientation: ADP-Glo turns the ADP formed in a reaction into a luminescent signal.

`CCCOC(=O)c1sc(NC(=O)[C@@H](N)CNC(=O)c2cccc(-c3noc(C)n3)c2)nc1C` [US20250084074, Example 160] showed a pIC50 of 7.27.
As for `Cc1nc(-c2cccc(C(=O)NCCC(=O)Nc3nc(C)c(C(F)(F)F)s3)c2)no1` [US20250084074, Example 139], the figure is 5.67; as for `Cc1nc(NC(=O)CCNc2nccc3ccc(C#N)cc23)sc1C(C)(C)C` [US20250084074, Example 50], 6.70.
In the case of `Cc1nc(NC(=O)CCNc2nccc3c(F)cc(C#N)cc23)sc1C(C)(C)C` [US20250084074, Example 53] it was 6.62; in that of `Cc1nc(-c2cccc(C(=O)NCCC(=O)Nc3cnn(C(=O)OC(C)(C)C)c3)c2)no1` [US20250084074, Example 274], 5.19.
Compound `CCc1nc(NC(=O)[C@@H](N)CNC(=O)c2cccc(-c3noc(C)n3)c2)sc1C(C)(C)C` [US20250084074, Example 161] gave a negative-log IC50 (pIC50) of 5.67.
The compound `Cc1nc(-c2ccc3ccnc(NCCC(=O)Nc4nc(C)c(C(C)(C)C)s4)c3c2)no1` [US20250084074, Example 75] had a pIC50 of 7.11.
As for `Cc1nc(NC(=O)CCNc2nccc3ccc(C#N)cc23)sc1C1(C(F)(F)F)CC1` [US20250084074, Example 51], the figure is 5.80; as for `Cc1nnn(-c2ccc3ccnc(NCCC(=O)Nc4nc(C)c(C(C)(C)C)s4)c3c2)n1` [US20250084074, Example 58], 7.85.
Take `Cc1nc(-c2ccc3ccnc(N[C@H]4C[C@@H](C(=O)Nc5nc(C)c(Br)s5)C4)c3c2)no1` [US20250084074, Example 97]: the pIC50 is 5.94.
As to `CCCc1nc(-c2cnc(NC(=O)CCNc3nccc4ccc(-c5noc(C)n5)cc34)s2)no1` [US20250084074, Example 119], the pIC50 is 7.17.
In the case of `CCCOC(=O)c1sc(C(=O)N2CC[C@@H](NC(=O)c3cccc(-c4noc(C)n4)c3)C2)nc1C` [US20250084074, Example 241] it was 5.51.
